Data taken from US20260070887A1 (Shenzhen Zhongge Biological Technology Co., Ltd., priority 2022, published 2026).
pIC50: −log10 of the molar value. Read-outs that look alike come from different tables or passages of the source.

Legend:
KIF18A = KIF18A (Homo sapiens (Human), UniProt Q8NI77); assay: KIF18A ATPase activity under tubulin stimulation (ADP-Glo assay); format: biochemical; details: KIF18A 30 nM, ATP 150 μM, pig microtubules
A2780 cells = assay: A2780 cell anti-proliferation assay; format: cell-based; details: 6 days, Cell Titer-Glo
Experimental: A2780 (ECACC) cells were cultured in RPMI-1640 complete medium (Gibco, A1049101) containing 10% fetal bovine serum (Gibco, 10099-141C), 100 U penicillin and 100 μg/mL streptomycin (Gibco, 15140-122). The Promega kit Cell Titer-Glo (Promega: G7572) was used in this method for test.
A2780 cells were cultured in T75 cell flasks (Corning, 430641) and the cells were placed in a 37° C., 5% CO2 incubator. Cells were passaged when reaching a cell density of 70%-80%, once every five days. To perform the experiment, the test compounds were dissolved in DMSO to prepare a 10 mM stock solution, and the test compounds were added to the 384-well cell test plate (Corning, 3765) at the predetermined concentration (19.5 nM-[…]) using ECHO. A2780 cells were digested and 4000 cells (60 μL medium) were seeded per well in the test plate. The 384-well plate was then centrifuged at 500 rpm for 1 minute, and then placed in a 37° C., 5% CO2 incubator for 6 days of cultivation. Six days later, the cell culture plate was equilibrated for 10 minutes at room temperature, 25 μL of Cell Titer-Glo was added to each well, and the mixture was shaken and mixed well and let stand for 5 minutes. The luminescence values for samples in various wells were read using a microplate reader in Luminescence mode.
The percentage of inhibition of A2780 cell proliferation by the test compound at each concentration was calculated by comparing with the values of the control group (0.2% DMSO). The IC50 values of the compounds were obtained by concentration-inhibition rate nonlinear regression analysis of the test compounds using GraphPad Prism 9.

PK study in ICR mice = format: in vivo, mouse; details: plasma, route and dose not given
Outline: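 Fasted ICR mice (3/group) dosed intravenously or by oral gavage; plasma sampled up to 24 h. Plasma levels measured by LC-MS/MS after protein precipitation. T½, AUC0-t, CL, Vss and F derived by noncompartmental analysis.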

[1] = both sexes, mouse, read-out: AUC
[2] = both sexes, mouse, read-out: Cmax

KIF18A, sequence (Q8NI77 whole entry): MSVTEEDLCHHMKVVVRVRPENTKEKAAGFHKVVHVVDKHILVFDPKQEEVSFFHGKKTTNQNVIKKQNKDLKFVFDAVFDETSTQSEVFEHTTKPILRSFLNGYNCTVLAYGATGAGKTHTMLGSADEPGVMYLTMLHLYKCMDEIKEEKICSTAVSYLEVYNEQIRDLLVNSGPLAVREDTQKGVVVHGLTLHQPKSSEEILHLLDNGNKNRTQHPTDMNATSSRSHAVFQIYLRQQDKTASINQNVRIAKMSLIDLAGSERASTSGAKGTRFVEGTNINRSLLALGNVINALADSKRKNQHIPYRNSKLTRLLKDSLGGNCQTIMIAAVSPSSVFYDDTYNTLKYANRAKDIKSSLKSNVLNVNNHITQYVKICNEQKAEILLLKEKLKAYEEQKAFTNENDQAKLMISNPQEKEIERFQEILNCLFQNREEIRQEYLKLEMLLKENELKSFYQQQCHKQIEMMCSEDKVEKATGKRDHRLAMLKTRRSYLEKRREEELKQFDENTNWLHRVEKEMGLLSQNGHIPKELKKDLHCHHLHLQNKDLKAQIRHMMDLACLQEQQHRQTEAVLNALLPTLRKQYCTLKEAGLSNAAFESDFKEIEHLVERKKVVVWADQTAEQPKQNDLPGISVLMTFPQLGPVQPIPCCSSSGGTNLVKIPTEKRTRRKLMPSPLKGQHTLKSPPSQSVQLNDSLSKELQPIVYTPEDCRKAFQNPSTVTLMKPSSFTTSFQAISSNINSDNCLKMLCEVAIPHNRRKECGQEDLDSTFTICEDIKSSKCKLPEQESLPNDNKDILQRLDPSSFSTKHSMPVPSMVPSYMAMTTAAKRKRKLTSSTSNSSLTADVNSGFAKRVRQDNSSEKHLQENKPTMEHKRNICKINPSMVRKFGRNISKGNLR
KIF18A, sequence (P02550 whole entry partner): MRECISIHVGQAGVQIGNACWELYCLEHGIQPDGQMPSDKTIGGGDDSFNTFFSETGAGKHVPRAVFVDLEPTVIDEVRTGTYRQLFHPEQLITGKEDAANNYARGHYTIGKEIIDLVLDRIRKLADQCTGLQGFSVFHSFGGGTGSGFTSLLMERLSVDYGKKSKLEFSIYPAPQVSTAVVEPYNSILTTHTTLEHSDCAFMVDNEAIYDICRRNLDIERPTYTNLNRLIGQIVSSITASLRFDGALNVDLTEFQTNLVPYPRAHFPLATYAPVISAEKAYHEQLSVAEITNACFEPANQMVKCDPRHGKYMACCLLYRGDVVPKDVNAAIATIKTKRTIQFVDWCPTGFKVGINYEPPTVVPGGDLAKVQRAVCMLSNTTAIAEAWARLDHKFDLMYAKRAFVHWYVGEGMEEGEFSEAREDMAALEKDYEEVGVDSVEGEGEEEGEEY
KIF18A, sequence (P02554 whole entry partner): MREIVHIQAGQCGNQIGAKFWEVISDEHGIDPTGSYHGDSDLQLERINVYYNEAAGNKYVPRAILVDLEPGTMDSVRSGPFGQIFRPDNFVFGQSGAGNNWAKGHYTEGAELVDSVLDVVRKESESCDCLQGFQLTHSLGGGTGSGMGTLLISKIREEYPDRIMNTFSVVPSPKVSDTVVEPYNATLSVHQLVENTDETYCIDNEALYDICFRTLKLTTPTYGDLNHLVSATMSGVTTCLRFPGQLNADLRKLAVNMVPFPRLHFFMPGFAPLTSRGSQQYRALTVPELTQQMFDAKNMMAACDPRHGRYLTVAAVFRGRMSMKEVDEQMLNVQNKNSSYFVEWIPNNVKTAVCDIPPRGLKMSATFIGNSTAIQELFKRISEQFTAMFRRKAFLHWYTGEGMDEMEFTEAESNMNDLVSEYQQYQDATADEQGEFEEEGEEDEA

| SMILES | pIC50 (KIF18A) | pIC50 (A2780 cells) | AUC (PK study in ICR mice; [1]) [ng·h/mL] | Cmax (PK study in ICR mice; [2]) [ng/mL] | pIC50 (A2780 cells; Homo sapiens, A2780, 144 h) | AUC (PK study in ICR mice) [ng·h/mL] | Cmax (PK study in ICR mice) [ng/mL] |
| --- | --- | --- | --- | --- | --- | --- | --- |
| CC1Cn2c(cc3c(NC(=O)c4ccc(NS(=O)(=O)CCO)cc4N4CCC5(CC4)CC5)cccc32)C(C)O1 (single isomer, unassigned) [Compound 312-P2A, N-(1,3-dimethyl-3,4-dihydro-1H-[1,4]oxazino[4,3-a]indol-9-yl)-4-((2-hydroxyethyl)sulfonamido)-2-(6-azaspiro[2.5]oct-6-yl)benzamide] | ≥ 7.30 | 5.19 |  |  |  |  |  |
| CC1Cn2c(cc3c(NC(=O)c4ccc(NS(=O)(=O)CCO)cc4N4CCC5(CC4)CC5)cccc32)C(C)O1 (single isomer, unassigned) [Compound 312-P3, N-(1,3-dimethyl-3,4-dihydro-1H-[1,4]oxazino[4,3-a]indol-9-yl)-4-((2-hydroxyethyl)sulfonamido)-2-(6-azaspiro[2.5]oct-6-yl)benzamide] | 6.30 to 7.30 |  | 32400 | 2980 | < 5.00 |  |  |
| COC1c2cc3c(NC(=O)c4ccc(NS(=O)(=O)CCO)cc4N4CCC5(CC4)CC5)cccc3n2CCC1(F)F (single isomer, unassigned) [Example 340-P2] | ≥ 7.30 | < 5.00 |  |  |  |  |  |
| CC1(C)Cn2c(nc3c(NC(=O)c4ccc(NS(=O)(=O)CCO)cc4N4CCC5(CC4)CC5)cccc32)CO1 [Compound 391, N-(3,3-dimethyl-3,4-dihydro-1H-benzo[4,5]imidazo[2,1-c][1,4]oxazin-9-yl)-4-((2-hydroxyethyl)sulfonamido)-2-(6-azaspiro[2.5]octan-6-yl)benzamide] | 6.30 to 7.30 |  | 38000 | 4370 | < 5.00 |  |  |
| CC1(C)Cn2c(cc3c(NC(=O)c4ccc(NS(=O)(=O)CCO)cc4N4CCC5(CC4)CC5)ccc(C#N)c32)CO1 [Compound 392, N-(6-cyano-3,3-dimethyl-3,4-dihydro-1H-[1,4]oxazino[4,3-a]indol-9-yl)-4-((2-hydroxyethyl)sulfonamido)-2-(6-azaspiro[2.5]oct-6-yl)benzamide] | ≥ 7.30 |  | 50800 | 5080 | 5.21 |  |  |
| CC1(C)Cn2c(cc3c(NC(=O)c4ccc(NS(=O)(=O)CCO)cc4N4CCC(=C(F)F)CC4)ccc(C#N)c32)CO1 [Compound 393, N-(6-cyano-3,3-dimethyl-3,4-dihydro-1H-[1,4]oxazino[4,3-a]indol-9-yl)-2-(4-(difluoromethylene)piperidin-1-yl)-4-((2-hydroxyethyl)sulfonamido)benzamide] | 6.30 to 7.30 |  | 22300 | 3840 | < 5.00 |  |  |
| CC1(C)Cn2c(nc3c(NC(=O)c4ccc(NS(=O)(=O)CCO)cc4N4CCC(=C(F)F)CC4)cccc32)CO1 [Compound 394, 2-(4-(difluoromethylene)piperidin-1-yl)-N-(3,3-dimethyl-3,4-dihydro-1H-benzo[4,5]imidazo[2,1-c][1,4]oxazin-9-yl)-4-((2-hydroxyethyl)sulfonamido)benzamide] | ≥ 7.30 |  | 47800 | 4220 | < 5.00 |  |  |
| CC1(C)OCCn2c1cc1c(NC(=O)c3ccc(NS(=O)(=O)CCO)cc3N3CCC(=C(F)F)CC3)cccc12 [Compound 395, 2-(4-(difluoromethylene)piperidin-1-yl)-N-(1,1-dimethyl-3,4-dihydro-1H-[1,4]oxazino[4,3-a]indol-9-yl)-4-((2-hydroxyethyl)sulfonamido)benzamide] | ≥ 7.30 |  |  |  | < 5.00 |  |  |
| O=C(Nc1cccc2c1cc1n2CC2CCC1O2)c1ccc(NS(=O)(=O)CCO)cc1N1CCC(=C(F)F)CC1 (stereo not drawn) [Compound 398, 2-(4-(difluoromethylene)piperidin-1-yl)-4-((2-hydroxyethyl)sulfonamido)-N-(7,8,9,10-tetrahydro-6H-7,10-epoxyazeto[1,2-a]indol-1-yl)benzamide] | 6.30 to 7.30 | < 5.00 |  |  |  | 6992 | 1410 |
| COc1ccc(NC(=O)c2ccc(NS(=O)(=O)CCO)cc2N2CCC(=C(F)F)CC2)c2cc3n(c12)CCOC3 [Compound 405, 2-(4-(difluoromethylene)piperidin-1-yl)-4-((2-hydroxyethyl)sulfonamido)-N-(6-methoxy-3,4-dihydro-1H-[1,4]oxazinyl[4,3-a]indol-9-yl)benzamide] | ≥ 7.30 | < 5.00 |  |  |  | 27572 | 4205 |
| Nc1cc(NS(=O)(=O)CCO)cc(N2CCC3(CC2)CC3)c1C(=O)Nc1cccc(N2CCC(F)(F)CC2)c1 [Example 1, 2-amino-N-(3-(4,4-difluoropiperidin-1-yl)phenyl)-4-((2-hydroxyethyl)sulfonamide)-6-(6-azaspiro[2.5]octan-6-yl)benzamide] | ≥ 7.30 |  |  |  |  |  |  |
| CNc1cc(NS(=O)(=O)CCO)cc(N2CCC3(CC2)CC3)c1C(=O)Nc1cc(C)nc(N2CCC(F)(F)CC2)n1 [Example 4, N-(2-(4,4-difluoropiperidin-1-yl)-6-methylpyrimidin-4-yl)-4-(2-hydroxyethylsulfonamide)-2-methylamino-6-(6-azaspiro[2.5]octan-6-yl)benzamide] | 6.30 to 7.30 | 5.08 |  |  |  |  |  |
| O=C(Nc1cccc2c1cc1n2CCOC1)c1ccc(NS(=O)(=O)CCO)cc1N1CCC2(CC1)CC2 [Example 235, N-(3,4-dihydro-1H-[1, 4]oxazino[4,3-a]indol-9-yl)-4-(2-hydroxyethylsulfonamido)-2-(6-azaspiro[2.5]octan-6-yl)benzamide] | ≥ 7.30 |  | 5980 | 2990 | < 5.00 |  |  |
| O=C(Nc1ccc(F)c2c1nc1n2CCOC1)c1ccc(NS(=O)(=O)CCO)cc1N1CCC2(CC1)CC2 [Example 308, N-(6-fluoro-3,4-dihydro-1H-benzo[4,5]imidazo[2,1-c][1,4]oxazin-9-yl)-4-((2-hydroxyethyl)sulfonamido)-2-(6-azaspiro[2.5]octan-6-yl)benzamide] | ≥ 7.30 |  | 5650 | 1100 | < 5.00 |  |  |
| N#Cc1ccc(NC(=O)c2ccc(NS(=O)(=O)CCO)cc2N2CCC3(CC2)CC3)c2cc3n(c12)CCOC3 [Example 310, N-(6-cyano-3,4-dihydro-1H-[1,4]oxazino[4,3-a]indol-9-yl)-4-((2-hydroxyethyl)sulfonamido)-2-(6-azaspiro[2.5]oct-6-yl)benzamide] | ≥ 7.30 |  | 12600 | 3030 | < 5.00 |  |  |
| O=C(Nc1cccc2c1cc1n2CCOC1)c1ccc(NS(=O)(=O)CCO)cc1N1CCC(=C(F)F)CC1 [Example 319, 2-(4-difluoromethylene)piperidin-1-yl-N-(3,4-dihydro-1H-[1,4]oxazino[4,3-a]indol-9-yl)-4-((2-hydroxyethyl)sulfonamide) benzamide] | ≥ 7.30 | < 5.00 |  |  |  | 16534 | 3717 |
| O=C(Nc1ccc(F)c2c1cc1n2CCOC1)c1ccc(NS(=O)(=O)CCO)cc1N1CCC(=C(F)F)CC1 [Example 321, 2-(4-(difluoromethylene)piperidin-1-yl)-N-(6-fluoro-3,4-dihydro-1H-[1,4]oxazino[4,3-a]indol-9-yl)-4-((2-hydroxyethyl)sulfonamido)benzamide] | ≥ 7.30 |  | 16000 | 4140 | < 5.00 |  |  |
| N#Cc1ccc(NC(=O)c2ccc(NS(=O)(=O)CCO)cc2N2CCC(=C(F)F)CC2)c2cc3n(c12)CCOC3 [Example 364, N-(6-cyano-3,4-dihydro-1H-[1,4]oxazino[4,3-a]indol-9-yl)-2-(4-(difluoromethylene)piperidin-1-yl)-4-((2-hydroxyethyl)sulfonamido)benzamide] | ≥ 7.30 |  |  |  | 5.03 |  |  |
| CC1(C)Cn2c(cc3c(NC(=O)c4ccc(NS(=O)(=O)CCO)cc4N4CCC(=C(F)F)CC4)cccc32)CO1 [Example 370, 2-(4-(difluoromethylene)piperidin-1-yl)-N-(3,3-dimethyl-3,4-dihydro-1H-[1,4]oxazino[4,3-a]indol-9-yl)-4-((2-hydroxyethyl)sulfonamido)benzamide] | 6.30 to 7.30 |  | 52400 | 3580 | < 5.00 |  |  |
| CC1(C)Cn2c(cc3c(NC(=O)c4ccc(NS(=O)(=O)CCO)cc4N4CCC5(CC4)CC5)cccc32)CO1 [Example 371, N-(3,3-dimethyl-3,4-dihydro-1H-[1,4]oxazino[4,3-a]indol-9-yl)-4-(2-hydroxyethylsulfonamido)-2-(6-azaspiro[2.5]octan-6-yl)benzamide] | ≥ 7.30 |  | 51200 | 3750 | < 5.00 |  |  |
| CC1(O)CCCn2c1cc1c(NC(=O)c3ccc(NS(=O)(=O)CCO)cc3N3CCC4(CC3)CC4)cccc12 (stereo not drawn) [Example 372] | ≥ 7.30 | < 5.00 |  |  |  |  |  |
| CC1(C)Cn2c(cc3c(NC(=O)c4ccc(NS(=O)(=O)CCO)cc4N4CCC5(CC4)CC5)ccc(OC(F)F)c32)CO1 [Example 523] | 6.30 to 7.30 |  |  |  |  | 99384 | 7088 |
